Assay results published in patent US20230263822A1, “MODULATION OF FACTOR 11 EXPRESSION” (Ionis Pharmaceuticals, Inc., priority 2008, published 2023).
Strand notation (5' to 3'): a small letter for the sugar, then the base; units joined by * are phosphorothioate-linked, units joined directly phosphodiester-linked; [ ] holds rarer units or linkages, { } end groups; capitals alone tell only the bases. e = 2'-O-(2-methoxyethyl) (MOE); [5mC] = 5-methylcytosine; d = 2'-deoxy (DNA)

Key:
[1] = system: human Factor 11 mRNA; assay: Dose-dependent inhibition of human Factor 11 in HepB3 cells, electroporation (Example 7); type: cell-based; conditions: for percent inhibition of human Factor 11 mRNA relative to untreated control cells: ~16 hours
Protocol: The gapmers were also transfected via electroporation and their dose dependent inhibition of human Factor 11 mRNA was measured. Cells were plated at a density of 20,000 cells per well and transfected via electroporation with 41.15 nM, 123.457 nM, 370.37 nM, 1111.11 nM, 3333.33 nM, and 10,000 nM concentrations of antisense oligonucleotide, as specified in Table 15. After a treatment period of approximately 16 hours, RNA was isolated from the cells and human Factor 11 mRNA levels were measured by quantitative real-time PCR. Human Factor 11 primer probe set RTS 2966 was used to measure mRNA levels. Factor 11 mRNA levels were adjusted according to total RNA content, as measured by RIBOGREEN. Results are presented as percent inhibition of human Factor 11, relative to untreated control cells.

[2] = system: blood coagulation; assay: PT and aPTT assay in cynomolgus monkeys (Example 46); type: in vivo; conditions: platelet poor plasma, relative to PBS group
Method in brief: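 Male and female monkeys received antisense oligonucleotide subcutaneously at 25 mg/kg, three times weekly in week 1 and twice weekly in weeks 2–8, with PBS as control. PT and aPTT were measured on platelet-poor plasma from blood taken during dosing. Values are ratios to the PBS group raised to the tissue-factor ISI (INR).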

[3] = Hematology assays in cynomolgus monkeys (Example 46); type: in vivo
Method in brief: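 Two male and two female monkeys per group received antisense oligonucleotide subcutaneously at 25 mg/kg, three times weekly in week 1 then twice weekly through week 8; PBS controls dosed identically. Blood sampled pre-dose and repeatedly during dosing for PT, aPTT and hematologic factors; necropsy on day 55.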

416864 (antisense GGCAGCGGACGGCATTGGTG; 5-10-5 gapmer, further chemistry not given here) [compound 416864]
IC50 [1]: 2200 nM
percent inhibition of human Factor 11 mRNA relative to untreated control cells ([1]; 41.15 nM): 4%
percent inhibition of human Factor 11 mRNA relative to untreated control cells ([1]; 123.457 nM): 3%
percent inhibition of human Factor 11 mRNA relative to untreated control cells ([1]; 370.37 nM): 6%
percent inhibition of human Factor 11 mRNA relative to untreated control cells ([1]; 1111.11 nM): 35%
percent inhibition of human Factor 11 mRNA relative to untreated control cells ([1]; 3333.33 nM): 75%
percent inhibition of human Factor 11 mRNA relative to untreated control cells ([1]; 10000 nM): 87%

416892 (antisense GCCCTTCATGTCTAGGTCCA; 3-14-3 chimeric gapmer, further chemistry not given here) [compound 416892]
IC50 [1]: 610 nM
percent inhibition of human Factor 11 mRNA relative to untreated control cells ([1]; 41.15 nM): 9%
percent inhibition of human Factor 11 mRNA relative to untreated control cells ([1]; 123.457 nM): 12%
percent inhibition of human Factor 11 mRNA relative to untreated control cells ([1]; 370.37 nM): 28%
percent inhibition of human Factor 11 mRNA relative to untreated control cells ([1]; 1111.11 nM): 65%
percent inhibition of human Factor 11 mRNA relative to untreated control cells ([1]; 3333.33 nM): 89%
percent inhibition of human Factor 11 mRNA relative to untreated control cells ([1]; 10000 nM): 98%

ISIS 449710: 3-8-3, 4-8-4, 2-10-2, 3-10-3 or 4-10-4 MOE microwalk gapmer (Table 46) (antisense e[5mC]*eA*e[5mC]*dA*dG*dT*dT*dT*d[5mC]*dT*dG*dG*d[5mC]*eA*eG*eG)
PT ratio (INR) ([2]; Day 10): 0.98
aPTT ratio relative to PBS group ([2]; Day 10): 1.00
PT ratio (INR) ([2]; Day 17): 1.00
aPTT ratio relative to PBS group ([2]; Day 17): 0.97
PT ratio (INR) ([2]; Day 24): 0.97
aPTT ratio relative to PBS group ([2]; Day 24): 1.00
PT ratio (INR) ([2]; Day 31): 0.98
aPTT ratio relative to PBS group ([2]; Day 31): 1.04
PT ratio (INR) ([2]; Day 38): 0.99
aPTT ratio relative to PBS group ([2]; Day 38): 1.02
PT ratio (INR) ([2]; Day 45): 0.97
aPTT ratio relative to PBS group ([2]; Day 45): 1.06
PT ratio (INR) ([2]; Day 52): 0.98
aPTT ratio relative to PBS group ([2]; Day 52): 1.03
PT ratio (INR) ([2]; Day 55): 1.06
aPTT ratio relative to PBS group ([2]; Day 55): 1.07
PT ratio (INR) ([2]; Day −5): 0.96
aPTT ratio relative to PBS group ([2]; Day −5): 0.98
PT ratio (INR) ([2]; Day −14): 1.03
aPTT ratio relative to PBS group ([2]; Day −14): 1.07
HCT ([3]; Day 17): 43%
MCH ([3]; Day 17): 23.1 pg
MCHC ([3]; Day 17): 30.7 g/dL
MCV ([3]; Day 17): 75 fL
RBC count ([3]; Day 17): 5.8e+06 µL⁻¹
WBC count ([3]; Day 17): 12000 µL⁻¹
hemoglobin content ([3]; Day 17): 13.4 g/dL
monocytes ([3]; Day 17): 2.5%
neutrophils ([3]; Day 17): 80%
platelet count ([3]; Day 17): 382 ×100/μL
HCT ([3]; Day 31): 44%
MCH ([3]; Day 31): 22.6 pg
MCHC ([3]; Day 31): 30.1 g/dL
MCV ([3]; Day 31): 75 fL
RBC count ([3]; Day 31): 5.8e+06 µL⁻¹
WBC count ([3]; Day 31): 12000 µL⁻¹
hemoglobin content ([3]; Day 31): 13.1 g/dL
monocytes ([3]; Day 31): 2.4%
neutrophils ([3]; Day 31): 94%
platelet count ([3]; Day 31): 422 ×100/μL
HCT ([3]; Day 45): 43%
MCH ([3]; Day 45): 21.8 pg
MCHC ([3]; Day 45): 30.4 g/dL
MCV ([3]; Day 45): 75 fL
RBC count ([3]; Day 45): 5.7e+06 µL⁻¹
WBC count ([3]; Day 45): 11000 µL⁻¹
hemoglobin content ([3]; Day 45): 13.0 g/dL
monocytes ([3]; Day 45): 3.4%
neutrophils ([3]; Day 45): 97%
platelet count ([3]; Day 45): 313 ×100/μL
HCT ([3]; Day 55): 41%
MCH ([3]; Day 55): 22.7 pg
MCHC ([3]; Day 55): 31.1 g/dL
MCV ([3]; Day 55): 73 fL
RBC count ([3]; Day 55): 5.6e+06 µL⁻¹
WBC count ([3]; Day 55): 15000 µL⁻¹
hemoglobin content ([3]; Day 55): 12.7 g/dL
monocytes ([3]; Day 55): 1.6%
neutrophils ([3]; Day 55): 132%
platelet count ([3]; Day 55): 360 ×100/μL
HCT ([3]; Day-5): 44%
MCH ([3]; Day-5): 22.8 pg
MCHC ([3]; Day-5): 29.7 g/dL
MCV ([3]; Day-5): 77 fL
RBC count ([3]; Day-5): 5.8e+06 µL⁻¹
WBC count ([3]; Day-5): 11000 µL⁻¹
hemoglobin content ([3]; Day-5): 13.2 g/dL
monocytes ([3]; Day-5): 2.0%
neutrophils ([3]; Day-5): 86%
platelet count ([3]; Day-5): 463 ×100/μL
HCT ([3]; Day-14): 41%
MCH ([3]; Day-14): 23.0 pg
MCHC ([3]; Day-14): 31.2 g/dL
MCV ([3]; Day-14): 75 fL
RBC count ([3]; Day-14): 5.6e+06 µL⁻¹
WBC count ([3]; Day-14): 11000 µL⁻¹
hemoglobin content ([3]; Day-14): 13.0 g/dL
monocytes ([3]; Day-14): 1.3%
neutrophils ([3]; Day-14): 93%
platelet count ([3]; Day-14): 411 ×100/μL

ISIS 449711: 3-8-3, 4-8-4, 2-10-2, 3-10-3 or 4-10-4 MOE microwalk gapmer (Table 46) (antisense eA*e[5mC]*dA*dG*dT*dT*dT*d[5mC]*dT*dG*dG*d[5mC]*eA*eG)
PT ratio (INR) ([2]; Day 10): 0.94
aPTT ratio relative to PBS group ([2]; Day 10): 0.92
PT ratio (INR) ([2]; Day 17): 0.95
aPTT ratio relative to PBS group ([2]; Day 17): 0.90
PT ratio (INR) ([2]; Day 24): 0.94
aPTT ratio relative to PBS group ([2]; Day 24): 0.92
PT ratio (INR) ([2]; Day 31): 0.98
aPTT ratio relative to PBS group ([2]; Day 31): 0.89
PT ratio (INR) ([2]; Day 38): 1.02
aPTT ratio relative to PBS group ([2]; Day 38): 0.93
PT ratio (INR) ([2]; Day 45): 1.01
aPTT ratio relative to PBS group ([2]; Day 45): 0.94
PT ratio (INR) ([2]; Day 52): 1.00
aPTT ratio relative to PBS group ([2]; Day 52): 0.92
PT ratio (INR) ([2]; Day 55): 1.07
aPTT ratio relative to PBS group ([2]; Day 55): 0.96
PT ratio (INR) ([2]; Day −5): 0.95
aPTT ratio relative to PBS group ([2]; Day −5): 0.96
PT ratio (INR) ([2]; Day −14): 1.00
aPTT ratio relative to PBS group ([2]; Day −14): 0.94
HCT ([3]; Day 17): 42%
MCH ([3]; Day 17): 22.2 pg
MCHC ([3]; Day 17): 29.9 g/dL
MCV ([3]; Day 17): 75 fL
RBC count ([3]; Day 17): 5.6e+06 µL⁻¹
WBC count ([3]; Day 17): 10000 µL⁻¹
hemoglobin content ([3]; Day 17): 12.5 g/dL
monocytes ([3]; Day 17): 5.9%
neutrophils ([3]; Day 17): 52%
platelet count ([3]; Day 17): 325 ×100/μL
HCT ([3]; Day 31): 39%
MCH ([3]; Day 31): 22.1 pg
MCHC ([3]; Day 31): 29.8 g/dL
MCV ([3]; Day 31): 73 fL
RBC count ([3]; Day 31): 5.4e+06 µL⁻¹
WBC count ([3]; Day 31): 9000 µL⁻¹
hemoglobin content ([3]; Day 31): 11.8 g/dL
monocytes ([3]; Day 31): 6.9%
neutrophils ([3]; Day 31): 58%
platelet count ([3]; Day 31): 309 ×100/μL
HCT ([3]; Day 45): 39%
MCH ([3]; Day 45): 21.7 pg
MCHC ([3]; Day 45): 29.6 g/dL
MCV ([3]; Day 45): 73 fL
RBC count ([3]; Day 45): 5.4e+06 µL⁻¹
WBC count ([3]; Day 45): 9000 µL⁻¹
hemoglobin content ([3]; Day 45): 11.5 g/dL
monocytes ([3]; Day 45): 7.6%
neutrophils ([3]; Day 45): 45%
platelet count ([3]; Day 45): 257 ×100/μL
HCT ([3]; Day 55): 38%
MCH ([3]; Day 55): 21.3 pg
MCHC ([3]; Day 55): 29.5 g/dL
MCV ([3]; Day 55): 73 fL
RBC count ([3]; Day 55): 5.3e+06 µL⁻¹
WBC count ([3]; Day 55): 7000 µL⁻¹
hemoglobin content ([3]; Day 55): 11.3 g/dL
monocytes ([3]; Day 55): 7.8%
neutrophils ([3]; Day 55): 70%
platelet count ([3]; Day 55): 259 ×100/μL
HCT ([3]; Day-5): 41%
MCH ([3]; Day-5): 22.7 pg
MCHC ([3]; Day-5): 30.7 g/dL
MCV ([3]; Day-5): 74 fL
RBC count ([3]; Day-5): 5.7e+06 µL⁻¹
WBC count ([3]; Day-5): 12000 µL⁻¹
hemoglobin content ([3]; Day-5): 12.7 g/dL
monocytes ([3]; Day-5): 2.3%
neutrophils ([3]; Day-5): 71%
platelet count ([3]; Day-5): 431 ×100/μL
HCT ([3]; Day-14): 41%
MCH ([3]; Day-14): 22.6 pg
MCHC ([3]; Day-14): 31.0 g/dL
MCV ([3]; Day-14): 73 fL
RBC count ([3]; Day-14): 5.6e+06 µL⁻¹
WBC count ([3]; Day-14): 13000 µL⁻¹
hemoglobin content ([3]; Day-14): 12.7 g/dL
monocytes ([3]; Day-14): 1.2%
neutrophils ([3]; Day-14): 64%
platelet count ([3]; Day-14): 410 ×100/μL
